Reference: PubChem BioAssay AID248 (DTP/NCI, 2004)
Toxic doses and inconclusive results are not listed. Cut-off read from the data, not from the text of the source: active = T/C of 150% or more; inactive = T/C below 125%.

System: L1210 leukemia ip in BDF1 mice, survival T/C
Assay: NCI In Vivo Anticancer Drug Screen. Data for tumor model L1210 Leukemia (intraperitoneal) in B6D2F1 (BDF1) mice
Conditions: endpoint: mean survival time, higher = longer survival
Procedure, shortened: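 Ratio derived from survival: compound-dosed mice over vehicle-dosed mice, all bearing a transplantable tumor.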

[1] = dose: 100.0 mg/kg/injection, schedule: Q04DX003 (ip), vehicle: saline
[2] = dose: 200.0 mg/kg/injection, schedule: Q04DX003 (ip), vehicle: saline
[3] = dose: 400.0 mg/kg/injection, schedule: Q04DX003 (ip), vehicle: saline
[4] = dose: 100.0 mg/kg/injection, schedule: Q04DX003 (ip), vehicle: saline with Tween-80
[5] = dose: 200.0 mg/kg/injection, schedule: Q04DX003 (ip), vehicle: saline with Tween-80
[6] = dose: 400.0 mg/kg/injection, schedule: Q04DX003 (ip), vehicle: saline with Tween-80
[7] = dose: 100.0 mg/kg/injection, schedule: Q04DX003 (ip), vehicle: Klucel (hydroxypropylcellulose) (HPC)
[8] = dose: 200.0 mg/kg/injection, schedule: Q04DX003 (ip), vehicle: Klucel (hydroxypropylcellulose) (HPC)
[9] = dose: 400.0 mg/kg/injection, schedule: Q04DX003 (ip), vehicle: Klucel (hydroxypropylcellulose) (HPC)
[10] = dose: 50.0 mg/kg/injection, schedule: Q01DX001 (ip), vehicle: carboxymethylcellulose (CMC)
[11] = dose: 100.0 mg/kg/injection, schedule: Q01DX001 (ip), vehicle: carboxymethylcellulose (CMC)
[12] = dose: 200.0 mg/kg/injection, schedule: Q01DX001 (ip), vehicle: carboxymethylcellulose (CMC)
[13] = dose: 400.0 mg/kg/injection, schedule: Q01DX001 (ip), vehicle: carboxymethylcellulose (CMC)
[14] = dose: 100.0 mg/kg/injection, schedule: Q01DX009 (ip), vehicle: saline with Tween-80

Measured: T/C

CNCC(OC)c1ccc(O)c(O)c1 (stereo unspecified)
inactive: dose: 100.0 mg/kg/injection, schedule: Q01DX009 (ip), vehicle: saline 105 % of control | [1] 108 % of control | dose: 200.0 mg/kg/injection, schedule: Q01DX009 (ip), vehicle: saline 105 % of control | [2] 106 % of control | [3] 108 % of control

O=C1C2CC3C(CC2C(=O)[N]1[Sn]([c]1ccccc1)([c]1ccccc1)[c]1ccccc1)C1(Cl)C(Cl)=C(Cl)C3(Cl)C1(Cl)Cl (stereo unspecified)
inactive: dose: 10.0 mg/kg/injection, schedule: Q01DX001 (ip), vehicle: carboxymethylcellulose (CMC) 98 % of control | dose: 20.0 mg/kg/injection, schedule: Q01DX001 (ip), vehicle: carboxymethylcellulose (CMC) 95 % of control | dose: 40.0 mg/kg/injection, schedule: Q01DX001 (ip), vehicle: carboxymethylcellulose (CMC) 101 % of control | dose: 80.0 mg/kg/injection, schedule: Q01DX001 (ip), vehicle: carboxymethylcellulose (CMC) 101 % of control

O=C(O)CCCc1cccc2ccccc12
inactive: dose: 37.0 mg/kg/injection, schedule: Q01DX009 (ip), vehicle: gum acacia 97 % of control | dose: 75.0 mg/kg/injection, schedule: Q01DX009 (ip), vehicle: gum acacia 103 % of control | dose: 100.0 mg/kg/injection, schedule: Q04DX003 (ip), vehicle: gum acacia 97 % of control | dose: 150.0 mg/kg/injection, schedule: Q01DX009 (ip), vehicle: gum acacia 92 % of control | dose: 200.0 mg/kg/injection, schedule: Q04DX003 (ip), vehicle: gum acacia 86 % of control

COC1OC(COC(=O)c2ccccc2)C(OC(=O)N(C)c2ccccc2)C1OC (stereo unspecified)
inactive: [4] 98 % of control | [5] 92 % of control | [6] 95 % of control

c1ccc(N2CCN(c3ccccc3)C2c2ccc3c(c2)CCC3)cc1
inactive: [4] 92 % of control | [5] 90 % of control | [6] 104 % of control

CC(=O)N1CCC(CC2CCCCC2)CC1
inactive: dose: 12.5 mg/kg/injection, schedule: Q04DX003 (ip), vehicle: saline 97 % of control | dose: 25.0 mg/kg/injection, schedule: Q04DX003 (ip), vehicle: saline 100 % of control | dose: 50.0 mg/kg/injection, schedule: Q04DX003 (ip), vehicle: saline 100 % of control

O=C1NC(=O)C2(CCN(CCCSc3ccc(F)cc3)CC2)C(=O)N1
inactive: [7] 98 % of control | [8] 98 % of control | [9] 94 % of control

CC(c1ccccc1)n1cnc2c(=O)[nH]cnc21 (stereo unspecified)
inactive: [10] 106 % of control | [11] 101 % of control | [12] 101 % of control | [13] 95 % of control

CCC(C)c1cccc(OP(=O)(CC(C)CC(C)(C)C)Oc2ccccc2C(C)CC)c1 (stereo unspecified)
inactive: dose: 50.0 mg/kg/injection, schedule: Q01DX001 (ip), vehicle: acetone 94 % of control | dose: 100.0 mg/kg/injection, schedule: Q01DX001 (ip), vehicle: acetone 94 % of control | dose: 200.0 mg/kg/injection, schedule: Q01DX001 (ip), vehicle: acetone 93 % of control

COC(=O)C1CCCC(=O)C1C(=O)OC (stereo unspecified)
inactive: dose: 100.0 mg/kg/injection, schedule: Q04DX003 (ip), vehicle: other 106 % of control | dose: 200.0 mg/kg/injection, schedule: Q04DX003 (ip), vehicle: other 97 % of control | dose: 400.0 mg/kg/injection, schedule: Q04DX003 (ip), vehicle: other 104 % of control

COc1ccc(C2CCCCC2OS(C)(=O)=O)cc1 (stereo unspecified)
inactive: [11] 97 % of control | [12] 106 % of control | [13] 95 % of control

CCN(CC)CCC(CNc1c(C)cnc2cc(Cl)ccc12)c1ccc(Cl)cc1 (stereo unspecified)
inactive: [4] 100 % of control | [5] 100 % of control | [6] 94 % of control

CCOC(=O)CC(C(C)=O)C(=O)OCC (stereo unspecified)
inactive: [10] 100 % of control | [11] 100 % of control | [12] 94 % of control | [13] 100 % of control

ICc1nc2ccccc2[nH]1
inactive: dose: 9.38 mg/kg/injection, schedule: Q01DX001 (ip), vehicle: steriod suspending solution 95 % of control | dose: 18.75 mg/kg/injection, schedule: Q01DX001 (ip), vehicle: steriod suspending solution 105 % of control | dose: 37.5 mg/kg/injection, schedule: Q01DX001 (ip), vehicle: steriod suspending solution 94 % of control

CN(C)/C=N/N1CCN(C)CC1
inactive: dose: 100.0 mg/kg/injection, schedule: Q04DX002 (ip), vehicle: saline 115 % of control | dose: 200.0 mg/kg/injection, schedule: Q04DX002 (ip), vehicle: saline 101 % of control | dose: 400.0 mg/kg/injection, schedule: Q04DX002 (ip), vehicle: saline 97 % of control

Cc1ccc(N)cc1NC(=O)c1ccccc1
inactive: [11] 106 % of control | [12] 94 % of control | [13] 108 % of control

FC1(F)C(F)(F)C(Cl)(Cl)C1(Cl)Cl
inactive: [1] 104 % of control | [2] 96 % of control | [3] 107 % of control

O=C(CCCC(=O)N1CCOCC1)N1CCOCC1
inactive: [7] 108 % of control | [8] 103 % of control | [9] 101 % of control

Cc1nnc([N+](=O)[O-])s1
inactive: dose: 12.5 mg/kg/injection, schedule: Q01DX009 (ip), vehicle: Klucel (hydroxypropylcellulose) (HPC) 107 % of control | dose: 25.0 mg/kg/injection, schedule: Q01DX009 (ip), vehicle: Klucel (hydroxypropylcellulose) (HPC) 112 % of control | dose: 50.0 mg/kg/injection, schedule: Q01DX009 (ip), vehicle: Klucel (hydroxypropylcellulose) (HPC) 102 % of control

O=C(O)COc1ccc([N+](=O)[O-])cc1F
inactive: dose: 100.0 mg/kg/injection, schedule: Q04DX002 (ip), vehicle: other 102 % of control | dose: 200.0 mg/kg/injection, schedule: Q04DX002 (ip), vehicle: other 88 % of control | dose: 400.0 mg/kg/injection, schedule: Q04DX002 (ip), vehicle: other 91 % of control

COc1ccc(C(C)c2ccccc2)cc1 (stereo unspecified)
inactive: [4] 98 % of control | [5] 95 % of control | [6] 93 % of control

Clc1cc2c(cc1Cl)OB(c1ccccc1)O2
inactive: dose: 100.0 mg/kg/injection, schedule: Q04DX003 (ip), vehicle: alcohol 113 % of control | dose: 200.0 mg/kg/injection, schedule: Q04DX003 (ip), vehicle: alcohol 106 % of control

O=Cc1cc2c(cc1[N+](=O)[O-])OCO2
inactive: [7] 94 % of control | [4] 101 % of control | [8] 96 % of control | [5] 97 % of control | [9] 92 % of control | [6] 95 % of control

COc1ccccc1OC(=O)Nc1ccc(C)c([N+](=O)[O-])c1
inactive: dose: 25.0 mg/kg/injection, schedule: Q01DX009 (ip), vehicle: saline with Tween-80 95 % of control | dose: 50.0 mg/kg/injection, schedule: Q01DX009 (ip), vehicle: saline with Tween-80 118 % of control | [14] 92 % of control

Oc1ccc2c(c1)CCc1cn[nH]c1-2
inactive: dose: 100.0 mg/kg/injection, schedule: Q01DX001 (ip), vehicle: other 102 % of control | dose: 100.0 mg/kg/injection, schedule: Q01DX009 (ip), vehicle: other 98 % of control | dose: 200.0 mg/kg/injection, schedule: Q01DX001 (ip), vehicle: other 103 % of control | dose: 200.0 mg/kg/injection, schedule: Q01DX009 (ip), vehicle: other 96 % of control | dose: 400.0 mg/kg/injection, schedule: Q01DX001 (ip), vehicle: other 98 % of control | dose: 400.0 mg/kg/injection, schedule: Q01DX009 (ip), vehicle: other 94 % of control

CCC(=O)Nc1ccccc1Cl
inactive: [14] 97 % of control | dose: 200.0 mg/kg/injection, schedule: Q01DX009 (ip), vehicle: saline with Tween-80 98 % of control | dose: 400.0 mg/kg/injection, schedule: Q01DX009 (ip), vehicle: saline with Tween-80 101 % of control

Cc1ccc(S(=O)(=O)N(C)c2cc(Cl)c(C(=O)O)cc2Cl)cc1
inactive: dose: 100.0 mg/kg/injection, schedule: Q04DX003 (ip), vehicle: acetone 90 % of control | dose: 200.0 mg/kg/injection, schedule: Q04DX003 (ip), vehicle: acetone 93 % of control | dose: 400.0 mg/kg/injection, schedule: Q04DX003 (ip), vehicle: acetone 90 % of control

Cc1ccc(OC(=O)NC(C)(C)C)cc1
inactive: dose: 100.0 mg/kg/injection, schedule: Q04DX002 (ip), vehicle: Klucel (hydroxypropylcellulose) (HPC) 105 % of control | dose: 200.0 mg/kg/injection, schedule: Q04DX002 (ip), vehicle: Klucel (hydroxypropylcellulose) (HPC) 109 % of control | dose: 400.0 mg/kg/injection, schedule: Q04DX002 (ip), vehicle: Klucel (hydroxypropylcellulose) (HPC) 105 % of control
